Laboratory results as given in patent publication US12673081B2, “Traditional CHINESE medicine compound composition with immune bidirectional regulation effect and preparation method and applications thereof” (Chenland Nutritionals Inc., priority 2020, dated 2026).

Assays:
[1] = tested on: guinea pig model with allergic rhinitis; experiment: Allergic rhinitis experiment: symptom observation (nose scratching, sneezing, symptom score) after OVA nasal instillation; format: in vivo; details: guinea pigs, gavage 28 days, D1 41, D2 45, D3 116, D4 116, D5 58, D6 116, D7 233, D8 16 mg/kg
Text: (§1) On the day of modeling, drugs were given by gavage. Each guinea pig was given once a day, and the Placebo group was given equal volume of drug solution every day for 4 weeks, i.e. 28 days.

[2] = tested on: guinea pig model with allergic rhinitis; experiment: Allergic rhinitis experiment: number and time points of deaths in each group; format: in vivo; details: surviving guinea pigs of 10 in group; D1 41, D2 45, D3 116, D4 116, D5 58, D6 116, D7 233, D8 16 mg/kg
Text: 100 guinea pigs were divided into 20 cages with 5 guinea pigs in each cage. After 7 days of adaptive growth without abnormalities, 90 guinea pigs were used for the construction and induction of allergic rhinitis model, and the remaining 10 guinea pigs were used for normal control. During the whole experiment, the animals were looked after and treated in strict accordance with the animal ethics law.
as §1

[3] = tested on: eosinophils in nasal lavage solution; experiment: Counting of eosinophils in nasal lavage solution; format: in vivo, guinea pig; details: guinea pigs
Procedure: (§2) 1) After scoring on the second day after the last administration, guinea pigs were anesthetized by intraperitoneal injection of 10% chloral hydrate with the anesthetic dosage of 0.35 ml/100 g;
2) The guinea pig was fixed in a supine and low head position, the normal saline was slowly dropped into one nasal cavity at the rate of 1 ml/min, and the contralateral nasal cavity was continuously pumped with low negative pressure;
3) A small amount of the recovered lavage solution was taken immediately and put into a leukocyte counting plate to count the total number of leukocytes;
4) The remaining lavage solution was added with EDTA ([…]) and centrifuged at 14000 rpm at 4° C. for 15 minutes. And the supernatant was stored at −80° C. for use.

[4] = tested on: histamine, IgE, IL-4, IFN-γ, thromboxane B2 and leukotriene; experiment: Final plasma cytokines of guinea pigs by ELISA; format: in vivo, guinea pig
Procedure: as §2
2) The abdominal cavity was opened, and a 5 ml sterile syringe was inserted into the abdominal vein of the guinea pig, and the venous blood was drawn;
(§3) 3) The drawn venous blood was put into a heparin tube, mixed well, and left in a chromatography freezer at 4° C. overnight.
(§4) 4) After centrifugation at 14000 rpm at 4° C. for 15 minutes, the supernatant was taken and stored at −80° C. for use.
1.6 The expression levels of cytokines in guinea pig serum and nasal lavage solution were detected by ELISA. The final serum and nasal lavage solution were taken for the determination of histamine, IgE, IL-4, IFN-γ, thromboxane B2 and leukotriene.
(§5) 1) taking out the ELISA kit from the refrigerator and balancing it at room temperature for 20 min;
(§6) 3) after sealing the film with a film sealing plate, placing it in a 37° C. incubator for incubation for 30 min;
4) discarding the liquid in the wells, gently spin drying it, and adding 50 μL biotin labeled antibody working solution to each well, and incubating in a 37° C. incubator for 30 min;
(§7) 5) carefully removing the sealing film, pouring out the liquid in the wells, gently spin drying it, adding washing liquid into each well, standing at room temperature for 30 seconds and then pouring it out, repeating this operation for 5 times and gently patting it dry;
(§8) 6) adding 50 μL horseradish peroxidase labeled avidin working solution to each well, and incubating in a 37° C. incubator for 30 min;
(§9) 7) pouring out the liquid in the wells, gently spin drying it, adding washing liquid into each well, standing at room temperature for 30 seconds and then pouring it out, repeating this operation for 5 times and gently patting it dry; and
8) adding 100 μL color developing solution to each well in turn, and developing color in a 37° C. incubator without light for […];
9) adding […] termination solution to each well to terminate the reaction, then zeroing the blank wells and measure the absorbance (OD value) of each well at 450 nm wavelength, where the determination shall be carried out within 15 min after the termination solution is added.

nasal mucosa = experiment: HE staining of final nasal mucosa of guinea pigs; format: in vivo, guinea pig; details: gavage 28 days, D1 41, D2 45, D3 116, D4 116, D5 58, D6 116, D7 233, D8 16 mg/kg
Procedure: as §2
2) After peeling off the nasal skin, the maxilla together with the nasal cavity were removed, and the bilateral nasal cavities were completely separated from the middle incisors;
3) The nasal mucosa was carefully removed and fixed with 4% paraformaldehyde for HE staining;
4) All the HE stained pathological sections were observed under the light microscope.
The mucosal tissues fixed in 4% glutaraldehyde solution were taken out and made into 5 μm thick paraffin sections for HE staining.
1) 60%, 70%, 80% and 90% gradient ethanol of the fixed sample were used to dehydrate for 8 h respectively;
2) 100% ethanol I and II were used to dehydrated for 1 h respectively;
3) The xylene I and II were used to make the specimens transparent for 15 min respectively;
4) The specimens were soaked in liquid paraffin and placed in a 65° C. oven for 2 h;
5) The soaked paraffin specimens were taken out and embedded in paraffin;
6) The paraffin was cut into 5 μm thick sections and subjected to HE staining.
1) Xylene I and II for 15 min respectively;
2) Gradient ethanol hydration to distilled water;
3) Hematoxylin staining for 5 min;
4) Differentiation with 1% hydrochloric acid and ethanol for 1 min; […]

[5] = Cold model of immunocompromised rats induced by cyclophosphamide: body weight; format: in vivo, rat; details: SD rats, Sample-1 150, Sample-2 75, Sample-3/-4/-5 150, Sample-6 30 mg/kg
Text: (§10) […] were divided into 20 cages, 5 SD rats in each cage, 2 cages in each group, 1 cage for male and female respectively. After 7 days of adaptive growth, 70 rats were used for drug administration evaluation and the construction of rat upper respiratory tract infection model, and the remaining 10 rats were used for normal control. During the whole experiment, the animals were looked after and treated in strict accordance with the animal ethics law.
(§11) After the adaptive growth, the drug was given by gavage once a day for each SD rat. The Placebo group and the normal control group were given the same volume of drug solution (i.e. normal saline) every day for 4 weeks, i.e. 28 days.
(§12) 1) On the 14th day after gavage administration, rats in the model group were intraperitoneally injected with cyclophosphamide for 3 consecutive days and strengthened once on the 20th day to prepare the immunosuppressive model.
(§13) 2) On the 21st day, after the rats were placed in a low temperature environment overnight (4° C.), the cold symptoms such as burnout, decreased food intake and increased nasal secretion were found, which was regarded as successful modeling.
(§14) 3) During the period of normal administration, the administration was ended on the 28th day, and the rats were killed.
(§15) The body weight of rats was measured once a week. During the administration, the general conditions, behavioral characteristics and death status of rats in each group, such as appetite, hair color and body posture, were observed. Nasal secretion and body temperature were observed ever day.

[6] = tested on: cold model of immunocompromised rats; experiment: Cold model of immunocompromised rats induced by cyclophosphamide: body temperature; format: in vivo, rat; details: SD rats cold model, Sample-1 150, Sample-2 75, Sample-3/-4/-5 150, Sample-6 30 mg/kg
Text: as §10, §11, §12, §13, §14, §15

[7] = tested on: IL-1β, IFN-γ, IgG, IgM, sIgA; experiment: Cold model rats: cytokines in serum and saliva by ELISA; format: in vivo, rat; details: SD rats cold model, gavage 28 days, Sample-1 150, Sample-2 75, Sample-3/-4/-5 150, Sample-6 30 mg/kg
Procedure: 1) On the second day after the last administration, the rats were anesthetized by intraperitoneal injection of 10% chloral hydrate with the anesthetic dosage of 0.35 ml/100 g;
2) The abdominal cavity was opened, and a 5 ml sterile syringe was inserted into the abdominal vein of the rats, and the venous blood was drawn:
as §3, §4
2) SD rats were fixed in the supine and low head position, sterile cotton swabs were inserted into the upper respiratory tract of rats, dipped in rat saliva, and immediately placed in precooled normal saline and stored at −80° C. for use.
The final serum was used for IL-1β, IL-6, IL-12, IFN-γ, IgG, IgM, and saliva was used for the determination of sIgA. The determination steps were as follows:
as §5, §6
4) discarding the liquid in the wells, gently drying it, and adding 50 μL biotin labeled antibody working solution to each well, and incubating in a 37° C. incubator for 30 min;
as §7, §8, §9
8) adding […] color developing solution to each well in turn, and developing color in a 37° C. incubator without light for 15 min;
9) adding 50 μL termination solution to each well to terminate the reaction, then zeroing the blank wells and measure the absorbance (OD value) of each well at 450 nm wavelength, where the determination shall be carried out within 15 min after the termination solution is added.

[8] = final plasma, gavage 28 days, D1 41, D2 45, D3 116, D4 116, D5 58, D6 116, D7 233, D8 16 mg/kg

## CCOC(=O)N1CCC(=C2c3ccc(Cl)cc3CCc3cccnc32)CC1 [D8, Loratadine]
[1]
  nose scratching times decreased compared with the model group: 57.0%
  sneeze times decreased compared with the model group: 54.4%
[1]; score 1-3 per Table 2
  Final scoring of symptom observation: 1.50 ± 0.50
[2]
  Final number: 8
  Number after enhanced sensitization: 8
  Number after nasal instillation: 8
[3]; D1 41, D2 45, D3 116, D4 116, D5 58, D6 116, D7 233, D8 16 mg/kg
  number of eosinophils in nasal lavage solution decreased compared with the model group: 52.2%
[3]; D8 16 mg/kg, p<0.01
  number of eosinophils in nasal lavage solution compared with the model group: decreased significantly
[3]; nasal lavage solution, gavage 28 days, D1 41, D2 45, D3 116, D4 116, D5 58, D6 116, D7 233, D8 16 mg/kg
  Number of eosinophils: 3.50 ± 1.12 PCs./ml
[4]; [8]
  Histamine: 23.78 ± 3.86 ng/mL
  IFN-γ: 113.74 ± 12.59 pg/mL
  IL-4: 138.64 ± 39.91 pg/mL
  IgE: 41.86 ± 7.34 ng/mL
  LTB4: 32.00 ± 6.71 ng/mL
  TXB2: 24.86 ± 4.5 ng/mL
[4]; p<0.05
  contents of TXB2 and TLB4 in nasal lavage solution versus model control group: significant difference compared with the model control group
[4]; significantly different from model group (p<0.05)
  serum IgE content versus model group: reduce the serum IgE content
Nasal mucosa
  pathological analysis of HE stained nasal mucosa: the inflammatory reaction in nasal mucosa of guinea pigs was significantly reduced

## O=C1O[C@H]([C@@H](O)CO)C(O)=C1O [Sample-6, VC]
[5]; week 1
  weight week 1: 200.37 ± 8.23 g
[5]; week 2
  weight week 2: 217.99 ± 12.26 g
[5]; week 3
  weight week 3: 193.64 ± 12.51 g
[5]; week 4
  weight week 4: 173.58 ± 7.48 g
[5]; gavage once a day 28 days, week 0
  weight week 0: 184.61 ± 7.84 g
[6]; Day 15
  temperature Day 15: 36.84 ± 0.22
[6]; Day 16
  temperature Day 16: 36.78 ± 0.48
[6]; Day 17
  temperature Day 17: 36.9 ± 0.33
[6]; Day 18
  temperature Day 18: 36.6 ± 0.19
[6]; Day 19
  temperature Day 19: 36.63 ± 0.28
[6]; Day 20
  temperature Day 20: 36.69 ± 0.22
[6]; Day 21
  temperature Day 21: 36.41 ± 0.3
[6]; Day 22
  temperature Day 22: 37.89 ± 0.53
[6]; Day 23
  temperature Day 23: 38.23 ± 0.64
[6]; Day 24
  temperature Day 24: 38.11 ± 0.56
[6]; Day 25
  temperature Day 25: 37.87 ± 0.4
[6]; Day 26
  temperature Day 26: 37.41 ± 0.4
[6]; Day 27
  temperature Day 27: 37.32 ± 0.28
[6]; Day 28
  temperature Day 28: 37.62 ± 0.31
[7]; final serum
  serum IFN-γ content: 170.49 ± 21.44 pg/mL
  serum IL-β content: 100.12 ± 27.51 pg/mL
  serum IgG content: 606.77 ± 259.06 µg/mL
  serum IgM content: 177.1 ± 35.59 µg/mL
[7]; upper respiratory tract saliva
  saliva sIgA content: 13.9 ± 4.08 µg/mL
